Test results reported in ChEMBL document CHEMBL3507680, “University of Dundee, Gates Library screen for HepG2 cell viability”.

Test: Human HepG2 cell viability assay in 384 well format
Assay type: toxicity, cell-based
Set-up: dose 125 nL, time 70.5 hour; concentration not given beside the values
Details: HepG2 cells, read-out: Inhibition

Row | Compound | cytotoxicity at 70.5 h [%]
1 | Clc1ccc(N2CCC(C3CCN(Cc4cccnc4)CC3)C2)nc1 (centres undefined) | -8.52
2 | Cc1nc(NC(=O)NC2CC(=O)N(C)C2)nn1C(C)C (centres undefined) | 2.26
3 | CC(Cn1cccn1)n1cnc2cccc(F)c2c1=O (centres undefined) | -7.35
4 | COCC1CCCCN1C(=O)c1cc(Cn2ccc3ccccc32)[nH]n1 (centres undefined) | -2.47
5 | c1ccc(COc2ccccc2NC2CCOCC2)nc1 | -4.09
6 | CC(C(=O)O)N1CC2(CCC1=O)CCN(CCSc1ccccc1)CC2 (centres undefined) | -13.8
7 | Cc1ccc(-c2nc(CN3CCOCS3(=O)=O)c(C)o2)cc1 | -0.637
8 | Cc1nccn1CCN(C)C(=O)C1CCN(C(=O)C2CCCC2)CC1 | 8.88
9 | CCN(CC)C(=O)[C@@H]1C[C@@H](N)CN1c1nc(N2CCCC2)nc(C)c1C | 25.5
10 | Cc1cnc(N(C)Cc2cnc3ccccc3n2)nc1N(C)C | -14.7
11 | Cn1c(CN2CCC(O)CC2)nnc1C1CCCN(C(=O)C2CNC2)C1 (centres undefined) | -5.47
12 | Cc1ccc(N2CCN(C(=O)CN3C[C@@H]4CC[C@H]3C4)CC2=O)cc1 | 24.1
13 | O=S1(=O)COCCN1Cc1ccc(F)c(C(F)(F)F)c1 | -10.2
14 | COCCn1ccnc1C1CCN(C(=O)CSc2nnc(C)o2)CC1 | 9.15
15 | O=C(NCCc1csc(-c2ncccn2)n1)c1cnn2c1CCCC2 | -18.5
16 | CC(C)(C)n1cc(C2=CCN(CCNC(=O)c3ccccc3)CC2)cn1 | -5.4
17 | CCCOc1ccc(C(=O)N2C[C@@H](CN3CCCC3)[C@@H](CO)C2)cc1Cl | 1.78
18 | CC(=O)NCC1CCC2(CCN(c3ncnc4oc(C)nc34)CC2)O1 (centres undefined) | 21.7
19 | CN(CCNC(=O)c1cccnc1)S(C)(=O)=O | -5.32
20 | O=C(N1CCOCC1)N1CC[C@@](O)(c2ccccc2)[C@H]2CCCC[C@@H]21 | -1.75
21 | CN(C)CCC1CCCCN1Cc1cnn(C)c1C1CC1 (centres undefined) | 2.52
22 | Cc1ccc(C)c(OCc2cc(C(=O)N(C)Cc3nonc3C)no2)c1 | 3.12

Row | Compound | cytotoxicity at 70.5 h [%]
23 | CN(C)CC(C)(C)CN1CCC(c2ccnc(-c3cccc(O)c3)c2)C1 (centres undefined) | -8.34
24 | Cc1nc2c(C)cccc2cc1C(=O)N1CCC2(CCCNC2)C1 (centres undefined) | -11.4
25 | COC(=O)CCCC(=O)N1CCCCC1c1ccc(F)cc1 (centres undefined) | 2.01
26 | CS(=O)(=O)N1CCCn2nc(CNc3cc(C#N)ccn3)cc2C1 | -6.16
27 | Cc1cnccc1NCCNC1CCSCC1 | -17.3
28 | CC(C)c1cc(C(=O)NCCc2nc3c(s2)CCC3)n(C)n1 | 8.71
29 | COCCN1CCCC2(CCN(c3cc(C)c(C#N)c(C)n3)C2)C1=O (centres undefined) | 14.9
30 | COc1ccc(-c2n[nH]cc2CN(C)Cc2nccn2C)c(F)c1 | -3.33
31 | CCn1nc(C)cc1C(=O)NCc1cccnc1N(C)C | 2.09
32 | Cc1cc(C)c(C#N)c(NCCSc2nncn2C)n1 | -6.87
33 | CCCn1cc(-c2cc(C(=O)N(C)C)c3cccc(C)c3n2)cn1 | -7.56
34 | COc1cccn(Cc2nnc(-c3cccc(F)c3)o2)c1=O | -3.37
35 | CN(C)c1cc(N(C)Cc2cc(C(C)(C)C)n[nH]2)ncn1 | -2.08
36 | Cc1cnc(C)c(-c2cccc(-c3ccn(CCN4CCCC4)n3)c2)n1 | 11.2
37 | CC(C)n1cnnc1CN(C)Cc1cnc(-c2ccccn2)nc1 | -5.94
38 | COCC1CCN(S(=O)(=O)N2C[C@H](c3ccccc3)[C@@H](N)C2)CC1 | -1.87
39 | CCc1nnc(CN(C)C[C@@H]2CCCN3CCCC[C@H]23)o1 | -3.62
40 | CCCOc1ccc(C(=O)N2CC[C@H]3CC[C@@H](C2)N3)cc1Cl | -14.3
41 | O=C(CCN1CCNCC1)N1CCC2(CC1)c1ccccc1CC2O (centres undefined) | -6.68
42 | NCC1Cc2cc(Oc3cc(F)c(CN4CCCC4)c(F)c3)ccc2O1 (centres undefined) | -11.4
43 | N#Cc1cccc(NC2CC(=O)N(Cc3ccccc3Cl)C2)n1 (centres undefined) | 18.9
44 | COc1cc(-c2nc(C3CC3)nn2-c2ccnc(C)c2)nc(OC)n1 | -14.3

Row | Compound | cytotoxicity at 70.5 h [%]
45 | Cc1cc(F)ccc1OC1(C(=O)O)CCN(Cc2cccnc2)CC1 | 3.7
46 | CN(C)Cc1nnc(C2CCCN(c3nc(C(N)=O)cs3)C2)n1C (centres undefined) | -7.8
47 | CC(Cc1ccccn1)N(C)C(=O)c1ncc[nH]1 (centres undefined) | -8.42
48 | Cc1nccn1CCN(C)C(=O)c1cn(-c2ccccc2)nn1 | 33.5
49 | Cc1cc(F)ccc1N1CCC(N2C[C@@H](CN(C)C)[C@@H](CO)C2)CC1 | -6.24
50 | NC(=O)CN1CCC(C(=O)NCc2nc(-c3ccc(F)cc3)cs2)CC1 | -0.391
51 | CCc1nnc(CN(CC)C(=O)C2CC(=O)N(C(C)(C)C)C2)o1 (centres undefined) | -4.84
52 | COc1nc(C)c(C(=O)N2CCc3[nH]nc(C4CCCC4)c3C2)s1 | -2
53 | CCc1cc(N2CCC(NCCc3ccccc3F)CC2)nc(C)n1 | 5.19
54 | CN(CCc1cn[nH]c1)C(=O)C1CC(=O)N(Cc2cccnc2)C1 (centres undefined) | 34.9
55 | CSCc1nc(CNC(=O)C2CCCN(CC(N)=O)C2)cs1 (centres undefined) | 11.4
56 | COc1ccccc1OCc1cc(C(=O)N2CCCCCC2CO)n[nH]1 (centres undefined) | 8.73
57 | COc1ccccc1OCCCN(C)c1cc(C)nc(N)n1 | -4.86
58 | O=C(NCCc1cnccn1)c1cccc(S(=O)(=O)NC2CCOC2)c1 (centres undefined) | -1.15
59 | C[C@@H]1CN(C(=O)CCN2CCCC2)CC[C@@]1(O)C1CCC1 | 1.37
60 | CC(C)C(NC(=O)c1ccc(=O)[nH]c1)c1nnc2n1CCNCC2 (centres undefined) | -6.19
61 | O=C(c1nc2sccn2c1-c1ncc[nH]1)N1CCCCC1 | -17.8
62 | O=C(CCC(=O)N1CCC(Cc2ccc(CO)cc2)C1)c1ccccc1 (centres undefined) | -13.8
63 | CN(Cc1nc2ccsc2c(=O)[nH]1)C[C@@H]1CCCN2CCCC[C@H]12 | 14.5
64 | O=C(CN1CCOC1=O)N1CCc2nnc(Cc3ccccc3)n2CC1 | 17.1
65 | COCCC1(C(=O)O)CCCN(Cc2cc3c(cc2Cl)OCO3)C1 (centres undefined) | -5.22
66 | O=C1NC[C@@]2(C(=O)O)CN(Cc3cccc(C(F)(F)F)c3)C[C@@H]12 | 7.18

Row | Compound | cytotoxicity at 70.5 h [%]
67 | O=C(CCCn1ccnc1)N1CCC2(CC1)[C@H](O)C[C@@H]2OCCO | -7.46
68 | Cc1ccc(C2(CN3CCCC3)CCNCC2)nc1 | -9.4
69 | CCN1CC(C(=O)N2CCC(Oc3ccccc3Cl)CC2)CC1=O (centres undefined) | 4.13
70 | COCCCC1(CO)CCCN(CCc2ccccc2)C1 (centres undefined) | -1.1
71 | CNC(=O)C(C)(C)NC(=O)c1cc(OCC2CCC2)cc(C(=O)OC)c1 | -1.19
72 | CC(C)n1ccnc1C1CCCN(c2ccnc3ccccc23)C1 (centres undefined) | -0.236
73 | Cc1ccc(Cl)cc1C(=O)N1CCC2(CC1)c1ccccc1[C@@H](N)[C@@H]2O | 15.9
74 | O=C(Cc1ccc(O)c(Cl)c1)N1CCN(CC2CC2)[C@@H]2CS(=O)(=O)C[C@@H]21 | 17.4
75 | Cc1ccc([C@@H]2CN(C(=O)c3ccc[nH]3)C[C@H]2NC(=O)C2CC2)cc1 | -8.09
76 | Cc1ccccc1[C@@H]1CN(C(=O)c2ccc3[nH]nnc3c2)C[C@H]1C(=O)O | -4.82
77 | CN(C)Cc1nnc(C2CCN(c3nccc(N)n3)CC2)n1C1CC1 | 2.16
78 | Cn1c(Cn2cccn2)nnc1C1CCCN(c2ccncc2)C1 (centres undefined) | -8.1
79 | N#Cc1cccc(S(=O)(=O)N2CCCCC2CCN2CCCC2=O)c1 (centres undefined) | -2.56
80 | Cc1nc(C(=O)N2CCc3c(nc(-c4ccncc4)[nH]c3=O)C2)cs1 | -8.1
81 | CCc1csc(CCNC(=O)C2CC(=O)N(C(C)C)C2)n1 (centres undefined) | 4.82
82 | COCCc1noc(CNC2CCSC2)n1 (centres undefined) | -10.2
83 | COc1cccc(F)c1C(=O)N1C[C@@H](CN(C)CCO)[C@@H](CO)C1 | -8.49
84 | Cc1cncc(C(=O)N2CCCC(C(=O)CCc3ccccc3)C2)c1 (centres undefined) | -5.02
85 | O=S1(=O)C[C@@H]2[C@H](C1)N(Cc1ncc[nH]1)CCN2CC1CC1 | -5.56
86 | O=C(c1ccccn1)N1C[C@@H]2CC[C@H](C1)N(C(=O)CCc1cccs1)C2 | -5.4
87 | CC(C)NC(=O)[C@@H]1C[C@H](N)CN1C(=O)c1cc2c([nH]c1=O)CCCC2 | -7.39
88 | CCC(O)CNC(=O)C1(N(C)Cc2ccccc2)Cc2ccccc2C1 (centres undefined) | -3.52

Row | Compound | cytotoxicity at 70.5 h [%]
89 | CC(C)N1CCC(NCc2cccnc2N(C)Cc2ccccc2)CC1 | -5.38
90 | Cc1ncccc1OC1(C(=O)NCCCN2CCOCC2)CCNCC1 | -11.7
91 | CC(C)c1nc(N2CCN3CCCC3C2)c2cnn(C)c2n1 (centres undefined) | 1.45
92 | CCCS(=O)(=O)N1C[C@H]2OC(=O)N(CCc3cccc(Cl)c3)[C@H]2C1 | -4.21
93 | COc1cccc2c1OCC(CNC(=O)CCCN1CCOCC1)C2 (centres undefined) | -7.84
94 | Cc1ccc(F)c(OC2(C(=O)O)CCN(C(=O)N3CCCC3)CC2)c1 | -9.12
95 | Cc1ccc(C(NC(=O)[C@H]2CC[C@@H](O)CC2)c2cccnc2)cc1C (some centres undefined) | -6.91
96 | Cc1ncnc(NCc2cc3n(n2)CCCN(S(C)(=O)=O)C3)c1C | -12.3
97 | O=C(CSc1ccccn1)N1C[C@H]2CC[C@@H]1CN(Cc1cscn1)C2 | -8.62
98 | CC(=O)c1cc(CC(=O)NCc2ccc(F)cc2)cs1 | -1.82
99 | CCN(C)Cc1cnc(S(=O)(=O)CC)n1CCOC | -3.96
100 | COC[C@@]12CC[C@@H](N3CCOCC3)C[C@H]1CCN(c1ncccc1Cl)C2 | -4.77
101 | CN(C)C(=O)c1ccc2c(c1)N(C)C(CC(=O)NC(C)(C)CO)CO2 (centres undefined) | 18.8
102 | Cc1ccccc1C1CCCN1C(=O)CN1CC2(CCNCC2)OC1=O (centres undefined) | -4.74
103 | Cc1cc(N2CCN(Cc3ccccc3)CC(O)C2)cc(C)n1 (centres undefined) | 11.5
104 | COc1ccc(C(=O)N2CC[C@H](CO)[C@H](O)C2)c(C)c1 | -4.34
105 | CSc1ncccc1C(=O)N1C[C@H]2CC[C@@H]1CN(c1ncccn1)C2 | -10.3
106 | O=C1CC(NCc2ccncc2)CN1Cc1cccc(F)c1 (centres undefined) | 1.94
107 | CCN1CC2(CCC1=O)CCN(C(=O)c1ccc(Cl)cc1O)CC2 | -2.93
108 | CCCS(=O)(=O)NCC1CCOc2ccccc2C1 (centres undefined) | -1.69
109 | O=C(Nc1nncs1)NC1CCN(Cc2ccccc2)C1 (centres undefined) | -5.56
